Laboratory results from patent publication US8445502B2, “Pharmaceutical formulations comprising salts of a protein kinase inhibitor and methods of using same” (Astex Pharmaceuticals, Inc., priority 2007, dated 2013).
Read-outs that look alike come from different tables or passages of the source.

What was measured:
[1] = tested on: A549 lung cancer cells; format: in vivo; conditions: for tumor growth rate: qd×5×3 wk (vehicle 43)
Procedure: MP470 and MP470 HCl were tested against different tumor types in athymic nude mice as summarized below (Table 8). Various formulations and routes were evaluated. HT-29 colorectal cancer cells and SB-CL2 melanoma cells were implanted subcutaneously, while A549 lung cancer cells, MiaPaCa-2 pancreatic cancer cells, TT medullary thyroid cancer cells, and OVCAR-3 ovarian cancer cells were implanted […] in the hind flank of mice. All animals were allowed to develop medium-sized (80-125 mg) tumors, before initiation of dosing. Tumor volume and mouse bodyweight were followed over the course of the study.
A549 Lung Cancer Model—In 40 nude mice implanted intradermally with A549 lung cancer cells, animals were dosed with vehicle orally, MP470 in 100% corn oil orally, or 5-FU in sterile saline IP. […] […] While MP470 reduced tumor growth rates, treatment of these cells with 5-FU reduced the overall tumor growth rate per day further to 19.5 mm3/d on Day 26.
To determine whether MP470.HCl in combination with carboplatin increased the anti-tumor activity in xenograft tumors growing in vivo, the agents were administered alone and in combination and tumor growth was monitored. MP470.HCl (50 mg/kg) was combined with carboplatin (30 mg/kg) alone or carboplatin with taxol (20 mg/kg).

[2] = tested on: γ-H2AX levels in OVCAR-3 (ovarian carcinoma) cells; assay: DNA damage by γ-H2AX levels; format: cell-based; conditions: single agent 10 μM; control 0.5% DMSO medium
Procedure: OVCAR-3 (ovarian carcinoma) cells were treated with MP470 (10 μM), MP470.HCl (10 μM), and/or topotecan (10 μM).

[3] = tested on: SF-767 glioblastoma multiforme cells; assay: MTS cell death assay with ionizing radiation; format: cell-based
Procedure: SF-767 glioblastoma multiforme cells were treated with MP470 at 1 μM, 800c Gy IR (ionizing radiation), or a combination of both.

[4] = Solubility of MP470 and its salts (Table 2); format: physicochemical
[5] = rat, in vivo, iv, 10 mg/kg
Procedure: In the first IV administration study of MP470 free base, six groups of 6 rats were to be exposed to either vehicle alone or MP470 at 10, 20, 40, 80, or 160 mg/kg. Dosing was administered via a tail vein over approximately 30 minutes. Animals were observed immediately and 10 minutes and one hour after dosing, and daily thereafter for 4 additional days. […] Red urine and lethargy were present at 1 hour post dosing, but animals recovered and appeared normal thereafter. […] All other animals were euthanized and necropsied at day 4 appeared normal.

[6] = pKa by mixed-solvent (methanol-water) method; format: physicochemical
Procedure: The apparent pKa in aqueous solution was extrapolated from the determined pKa values (the apparent ionization constants in methanol-water solvent) plotted versus the percent methanol used. The apparent pKa of MP470 was determined to be 6.7.

[7] = Single-dose pharmacokinetics in rat (Table 10); format: in vivo
Text: MP470 free base has a relative bioavailability of […] as compared to the HCl salt.

[8] = tested on: Rad51 in A549 non-small cell lung cancer cells; assay: Rad51 protein level by Western blot in cells; format: cell-based; conditions: MP470.HCl alone, 24 hrs
Procedure: Rad51 protein levels were also determined in A549 non-small cell lung cancer cells using combinations with DNA damaging agents. Cells were treated for 24 hrs with 6.1 μM (IC30 of carboplatin alone) carboplatin in combination with 0.71 μM or 3.82 μM MP470.HCl. Protein lysates were isolated from treated and non-treated cells, separated by SDS-PAGE, and transferred to nitrocellulose. […] The increase in Rad51 due to carboplatin treatment was reduced by 26% when treated in combination with 0.71 μM MP470.HCl and by 42% with 3.82 μM MP470.HCl

[9] = 50 mM PBS buffer, pH 7, aqueous buffer, 50 mM PBS buffer, pH 7, read-out: Solubility (50 mM PBS buffer, pH 7, Exp. 15)
[10] = water, read-out: Solubility in water
[11] = Rat, 100 mg/kg PO, Dry Blend, hydrochloride, 100 mg/kg

With `S=C(NCc1ccc2c(c1)OCO2)N1CCN(c2ncnc3c2oc2ccccc23)CC1` [MP470, 4-[1]benzofuro[3,2-d]pyrimidin-4-yl-N-(1,3-benzodioxol-5-ylmethyl)piperazine-1-carbothioamide] the “Outcome: tumor growth” value ([1]; A549 lung, MP470 PO 50, 100, 200 mg/kg, (qd × 5) × 2 w, corn oil) was “no apparent dose relationship”, the tumor growth rate ([1]; Day 26, 50 mg/kg oral in corn oil) was 28.3 mm3/d and the tumor growth rate ([1]; Day 26, 100 mg/kg oral in corn oil) was 34.9 mm3/d. The tumor growth rate ([1]; Day 26, 150 mg/kg oral in corn oil) was 28.1 mm3/d, the “Increase in DNA damage (γ-H2AX) over control” value [2] was “did not cause DNA damage” and the “Increase in cell death over either agent alone” value ([3]; MP470 1 μM combined with 800c Gy ionizing radiation) was “more than two-fold”. The “Cell death (MTS assay)” value ([3]; MP470 at 1 μM alone) was “will induce cell death”, the Solubility [4, 9] was 1.22 µg/mL and the Solubility [4, 10] was 4.94 µg/mL. For the same molecule, the “mortality at the low dose” value [5] was “the third rat died after dosing”, the “pKa (apparent ionization constant)” value ([6]; 30% (v/v) methanol) was 6.81 and the “pKa (apparent ionization constant)” value ([6]; 60% (v/v) methanol) was 7.09. For the same molecule, the “pKa (apparent ionization constant)” value ([6]; 90% (v/v) methanol) was 7.10, the “apparent pKa” value ([6]; aqueous solution, extrapolated from pKa values in methanol-water) was 6.7 and the “Cmax” value ([7]; Rat, 100 mg/kg PO, Dry Blend) was 710 ng/mL. The “Tmax” value ([7]; Rat, 100 mg/kg PO, Dry Blend) was 11.3 h, the “AUC0→last” value ([7]; Rat, 100 mg/kg PO, Dry Blend, 100 mg/kg) was 7910 ng·h/mL and the “AUC0→last” value ([7]; Rat, 100 mg/kg PO, Dry Blend, listed as MP470 (free base), 100 mg/kg) was 7900 ng·h/mL. It also gave a bioavailability ([7]; in vivo, Rat, 100 mg/kg oral, dry powder blend, read-out: relative bioavailability as compared to the HCl salt) of 8%.
With `Cl.S=C(NCc1ccc2c(c1)OCO2)N1CCN(c2ncnc3c2oc2ccccc23)CC1` [MP470.HCl, 4-[1]benzofuro[3,2-d]pyrimidin-4-yl-N-(1,3-benzodioxol-5-ylmethyl)piperazine-1-carbothioamide hydrochloride] the “Outcome: tumor growth” value ([1]; A459 lung cancer, MP470.HCl PO 50 mg/kg, qd × 21, corn oil, hydrochloride, 50 mg/kg) was “Dose dependency”, the “Increase in DNA damage (γ-H2AX) over control” value [2] was “did not cause DNA damage” and the Solubility [4, 9] was 3.28 µg/mL. For the same molecule, the Solubility [4, 10] was 31.1 µg/mL, the Rad51 expression [8] was “did not alter the expression of Rad51” and the “AUC0→last” value ([7]; Rat, 3 mg/kg IV bolus, TV-10) was 18810 ng·h/mL. For the same molecule, the “Cmax” value ([7]; Rat, 3 mg/kg IV bolus, TV-10) was 8530 ng/mL, the “Tmax” value ([7]; Rat, 3 mg/kg IV bolus, TV-10) was 0.02 h and the “AUC0→last” value ([7]; Rat, 100 mg/kg PO, Corn oil) was 73350 ng·h/mL. The “Cmax” value ([7]; Rat, 100 mg/kg PO, Corn oil) was 5270 ng/mL, the “Tmax” value ([7]; Rat, 100 mg/kg PO, Corn oil) was 4.0 h and the “Cmax” value ([7]; Rat, 100 mg/kg PO, Dry Blend) was 7190 ng/mL. The “Tmax” value ([7]; Rat, 100 mg/kg PO, Dry Blend) was 9.5 h, the “AUC0→last” value [7, 11] was 94310 ng·h/mL and the “AUC0→last (μg · h/mL)” value [7, 11] was “about 94 μg · h/mL”. For the same molecule, the Tmax ([7]; Rat, 100 mg/kg orally, range over vehicles) was 4.0 to 9.5 h, the Cmax ([7]; in vivo, po, Rat, 100 mg/kg orally, range over vehicles, read-out: Cmax) was 4600 to 7200 ng/mL and the “t½β” value ([7]; rat, in vivo, iv, 3 mg/kg) was 0.36 h.
